Data as given in patent publication US8993542B2, “Methods of treating viral infections” (priority 2008, dated 2015).
Where two headings read alike, the source gives them in different places.

Key:
HIV = test: microbe, parasite or virus in culture; format: cell-based; details: for IC50: read-out: IC50
[1] = Toxicokinetics and 7-day toxicity after oral administration of CMX157 to rats; format: in vivo; details: rat plasma
HIV-1IIIB = test: TCID50 determination of drug-treated HIV-1IIIB; format: cell-based; design: TCID50, XTT Endpoint / TCID50, RT Endpoint / TCID50, P24 Endpoint: unit not given here
[2] = PANEL 40, M41L + L210W + T215Y + M184V
[3] = PANEL 41, M41L + L210W + T215Y + M184V
[4] = PANEL 44, D67N + K70R + T215F + K219E + M184V
[5] = virus treated 2 hours with 125 nM drug
[6] = virus treated 2 hours with 250 nM drug
[7] = virus treated 2 hours with 500 nM drug
[8] = virus treated 2 hours with 1000 nM drug

Structure (SMILES): C[C@H](Cn1cnc2c(N)ncnc21)OCP(=O)(O)O [TFV, (R)-9-(2-phosphonylmethoxypropyl)adenine]
- IC50 Fold Change (HIV; PANEL 1, WT): 0.79
- IC50 (HIV; PANEL 1, WT): 613 nM
- IC50 Fold Change (HIV; PANEL 2, WT): 0.85
- IC50 (HIV; PANEL 2, WT): 652 nM
- IC50 Fold Change (HIV; PANEL 3, 6 TAMs, no 184): 3.47
- IC50 (HIV; PANEL 3, 6 TAMs, no 184): 2670 nM
- IC50 Fold Change (HIV; PANEL 6, 6 TAMs + 184): 2.16
- IC50 (HIV; PANEL 6, 6 TAMs + 184): 1670 nM
- IC50 Fold Change (HIV; PANEL 7, 184V): 0.69
- IC50 (HIV; PANEL 7, 184V): 534 nM
- IC50 Fold Change (HIV; PANEL 9, 69ins, no 184): 22.00
- IC50 (HIV; PANEL 9, 69ins, no 184): 17000 nM
- IC50 Fold Change (HIV; PANEL 12, 69ins + 184): 4.72
- IC50 (HIV; PANEL 12, 69ins + 184): 3640 nM
- IC50 Fold Change (HIV; PANEL 14, 65R, no 184): 1.71
- IC50 (HIV; PANEL 14, 65R, no 184): 1320 nM
- IC50 Fold Change (HIV; PANEL 15, 65R + 184V): 1.22
- IC50 (HIV; PANEL 15, 65R + 184V): 940 nM
- IC50 Fold Change (HIV; PANEL 17, L74V): 0.62
- IC50 (HIV; PANEL 17, L74V): 476 nM
- IC50 Fold Change (HIV; PANEL 19, L74V + M184V): 0.29
- IC50 (HIV; PANEL 19, L74V + M184V): 227 nM
- IC50 Fold Change (HIV; PANEL 26, 151M, no 184): 2.26
- IC50 (HIV; PANEL 26, 151M, no 184): 1740 nM
- IC50 Fold Change (HIV; PANEL 28, 151M + 184): 1.43
- IC50 (HIV; PANEL 28, 151M + 184): 1100 nM
- IC50 Fold Change (HIV; PANEL 29, L74V − SDM): 0.69
- IC50 (HIV; PANEL 29, L74V − SDM): 535 nM
- IC50 Fold Change (HIV; PANEL 30, M184V − SDM): 0.54
- IC50 (HIV; PANEL 30, M184V − SDM): 413 nM
- IC50 Fold Change (HIV; PANEL 31, K65R − SDM): 2.01
- IC50 (HIV; PANEL 31, K65R − SDM): 1550 nM
- IC50 Fold Change (HIV; PANEL 33, T215Y): 2.39
- IC50 (HIV; PANEL 33, T215Y): 1840 nM
- IC50 Fold Change (HIV; PANEL 34, T215Y + M184V): 0.81
- IC50 (HIV; PANEL 34, T215Y + M184V): 624 nM
- IC50 Fold Change (HIV; PANEL 35, M41L + T215Y): 1.84
- IC50 (HIV; PANEL 35, M41L + T215Y): 1420 nM
- IC50 Fold Change (HIV; PANEL 37, M41L + T215Y + M184V): 1.34
- IC50 (HIV; PANEL 37, M41L + T215Y + M184V): 1030 nM
- IC50 Fold Change (HIV; PANEL 38, M41L + L210W + T215Y): 2.80
- IC50 (HIV; PANEL 38, M41L + L210W + T215Y): 2160 nM
- IC50 Fold Change (HIV; PANEL 39, M41L + L210W + T215Y): 3.01
- IC50 (HIV; PANEL 39, M41L + L210W + T215Y): 2320 nM
- IC50 Fold Change (HIV; [2]): 0.97
- IC50 (HIV; [2]): 751 nM
- IC50 Fold Change (HIV; [3]): 1.02
- IC50 (HIV; [3]): 789 nM
- IC50 Fold Change (HIV; PANEL 42, D67N + K70R): 2.56
- IC50 (HIV; PANEL 42, D67N + K70R): 1970 nM
- IC50 Fold Change (HIV; [4]): 0.91
- IC50 (HIV; [4]): 703 nM
- IC50 Fold Change (HIV; PANEL 45, L210W + T215Y): 1.34
- IC50 (HIV; PANEL 45, L210W + T215Y): 1030 nM
- IC50 Fold Change (HIV; PANEL 46, D67N + K70E): 0.96
- IC50 (HIV; PANEL 46, D67N + K70E): 738 nM
- IC50 Fold Change (HIV; PANEL 47, D67N + K70E + M184V): 0.64
- IC50 (HIV; PANEL 47, D67N + K70E + M184V): 495 nM
- IC50 Fold Change (HIV; PANEL 48, K70E + M184V): 0.61
- IC50 (HIV; PANEL 48, K70E + M184V): 472 nM
- AUC0-24 ([1]; oral CMX157 10 mg/kg, day 1): 510.8 ng·h/mL
- AUC0-∞ ([1]; oral CMX157 10 mg/kg, day 1): 775.2 ng·h/mL
- Cmax ([1]; oral CMX157 10 mg/kg, day 1): 55.35 ng/mL
- Tmax ([1]; oral CMX157 10 mg/kg, day 1): 2.0 h
- t1/2elim ([1]; oral CMX157 10 mg/kg, day 1): 10.9 h
- AUC0-24 ([1]; oral CMX157 10 mg/kg, day 7): 964.7 ng·h/mL
- AUC0-∞ ([1]; oral CMX157 10 mg/kg, day 7): 1,226.9 ng · h/ml
- Cmax ([1]; oral CMX157 10 mg/kg, day 7): 49.55 ng/mL
- Tmax ([1]; oral CMX157 10 mg/kg, day 7): 2.4 h
- t1/2elim ([1]; oral CMX157 10 mg/kg, day 7): 9.2 h
- AUC0-24 ([1]; oral CMX157 30 mg/kg, day 1): 1,456.1 ng · h/ml
- AUC0-∞ ([1]; oral CMX157 30 mg/kg, day 1): 1,808.1 ng · h/ml
- Cmax ([1]; oral CMX157 30 mg/kg, day 1): 109.10 ng/mL
- Tmax ([1]; oral CMX157 30 mg/kg, day 1): 4.0 h
- t1/2elim ([1]; oral CMX157 30 mg/kg, day 1): 10.1 h
- AUC0-24 ([1]; oral CMX157 30 mg/kg, day 7): 2,363.4 ng · h/ml
- AUC0-∞ ([1]; oral CMX157 30 mg/kg, day 7): 2,790.5 ng · h/ml
- Cmax ([1]; oral CMX157 30 mg/kg, day 7): 149.25 ng/mL
- Tmax ([1]; oral CMX157 30 mg/kg, day 7): 4.0 h
- t1/2elim ([1]; oral CMX157 30 mg/kg, day 7): 7.6 h
- AUC0-24 ([1]; oral CMX157 100 mg/kg, day 1): 3,039.3 ng · h/ml
- AUC0-∞ ([1]; oral CMX157 100 mg/kg, day 1): 3,639.5 ng · h/ml
- Cmax ([1]; oral CMX157 100 mg/kg, day 1): 181.40 ng/mL
- Tmax ([1]; oral CMX157 100 mg/kg, day 1): 12.0 h
- t1/2elim ([1]; oral CMX157 100 mg/kg, day 1): 7.2 h
- AUC0-24 ([1]; oral CMX157 100 mg/kg, day 7): 5,715.4 ng · h/ml
- AUC0-∞ ([1]; oral CMX157 100 mg/kg, day 7): 7,373.4 ng · h/ml
- Cmax ([1]; oral CMX157 100 mg/kg, day 7): 322.00 ng/mL
- Tmax ([1]; oral CMX157 100 mg/kg, day 7): 12.0 h
- t1/2elim ([1]; oral CMX157 100 mg/kg, day 7): 9.0 h
- effect on viral replication (HIV-1IIIB; up to 1000 nM, 2 hours): no discernible effect
- Fold Decrease From VC, P24 Endpoint (HIV-1IIIB; [5]): (0) Fold
- Fold Decrease From VC, RT Endpoint (HIV-1IIIB; [5]): (1.1) Fold
- Fold Decrease From VC, XTT Endpoint (HIV-1IIIB; [5]): (1.1) Fold
- TCID50, P24 Endpoint (HIV-1IIIB; [5]): 43056
- TCID50, RT Endpoint (HIV-1IIIB; [5]): 72449
- TCID50, XTT Endpoint (HIV-1IIIB; [5]): 4027
- Fold Decrease From VC, P24 Endpoint (HIV-1IIIB; [6]): (0) Fold
- Fold Decrease From VC, RT Endpoint (HIV-1IIIB; [6]): (1.1) Fold
- Fold Decrease From VC, XTT Endpoint (HIV-1IIIB; [6]): (0) Fold
- TCID50, P24 Endpoint (HIV-1IIIB; [6]): 36227
- TCID50, RT Endpoint (HIV-1IIIB; [6]): 72449
- TCID50, XTT Endpoint (HIV-1IIIB; [6]): 4529
- Fold Decrease From VC, P24 Endpoint (HIV-1IIIB; [7]): (0) Fold
- Fold Decrease From VC, RT Endpoint (HIV-1IIIB; [7]): (0) Fold
- Fold Decrease From VC, XTT Endpoint (HIV-1IIIB; [7]): (0) Fold
- TCID50, P24 Endpoint (HIV-1IIIB; [7]): 37328
- TCID50, RT Endpoint (HIV-1IIIB; [7]): 81289
- TCID50, XTT Endpoint (HIV-1IIIB; [7]): 4529
- Fold Decrease From VC, P24 Endpoint (HIV-1IIIB; [8]): (0) Fold
- Fold Decrease From VC, RT Endpoint (HIV-1IIIB; [8]): (1.3) Fold
- Fold Decrease From VC, XTT Endpoint (HIV-1IIIB; [8]): (0) Fold
- TCID50, P24 Endpoint (HIV-1IIIB; [8]): 36227
- TCID50, RT Endpoint (HIV-1IIIB; [8]): 64570
- TCID50, XTT Endpoint (HIV-1IIIB; [8]): 4529
